Reference: patent US20240360091A1, “GLUN2B-SUBUNIT SELECTIVE ANTAGONISTS OF THE N-METHYL-D-ASPARTATE RECEPTORS WITH ENHANCED POTENCY AT ACIDIC PH” (Emory University, priority 2021, published 2024)
Read-outs that look alike come from different tables or passages of the source.

Columns and labels:
[1] = test system: horizontal locomotor activity of mice; experiment: Locomotor activity; type: in vivo, mouse; settings: 0.3 mg/kg IP, two hours
Source text: (§1) The locomotor and rotarod studies were approved by the Georgia State University IACUC, an AAALAC accredited institution under the supervision of licensed veterinarians. Mice were group housed, provided nestlets and shelters with access to food pellets and water ad libitum under a 12-hour light/dark cycle.
For locomotor activity measurements, mice (C57B16, >90 days old, Jackson Labs) were placed in a closed (with light on) activity monitoring box for one hour to habituate prior to drug testing. After one hour, animals were removed and injected (IP) with drug and then returned to the activity monitoring box and total locomotor activity was monitored for two hours. The total number of light beam breaks in the cage (horizontal) was determined by a computer and results averaged for each drug. Results were analyzed by ANOVA and Dunnett's post hoc test to compare horizontal activity of drug-treated groups to vehicle controls. Male animals were used for these behavioral tests given only male mice were used in the MCAO transient ischemia studies.

human GluN1/GluN2B = human GluN1/GluN2B (Homo sapiens (Human), UniProt Q05586+Q13224); experiment: Two electrode voltage-clamp recordings from Xenopus laevis oocytes, GluN2B potency and pH dependence; type: cell-based; settings: for pH Boost: ratio of IC50 at pH 7.6 to IC50 at pH 6.9
human GluN1/GluN2B, sequence (Q13224 27-1484, other chains not shown): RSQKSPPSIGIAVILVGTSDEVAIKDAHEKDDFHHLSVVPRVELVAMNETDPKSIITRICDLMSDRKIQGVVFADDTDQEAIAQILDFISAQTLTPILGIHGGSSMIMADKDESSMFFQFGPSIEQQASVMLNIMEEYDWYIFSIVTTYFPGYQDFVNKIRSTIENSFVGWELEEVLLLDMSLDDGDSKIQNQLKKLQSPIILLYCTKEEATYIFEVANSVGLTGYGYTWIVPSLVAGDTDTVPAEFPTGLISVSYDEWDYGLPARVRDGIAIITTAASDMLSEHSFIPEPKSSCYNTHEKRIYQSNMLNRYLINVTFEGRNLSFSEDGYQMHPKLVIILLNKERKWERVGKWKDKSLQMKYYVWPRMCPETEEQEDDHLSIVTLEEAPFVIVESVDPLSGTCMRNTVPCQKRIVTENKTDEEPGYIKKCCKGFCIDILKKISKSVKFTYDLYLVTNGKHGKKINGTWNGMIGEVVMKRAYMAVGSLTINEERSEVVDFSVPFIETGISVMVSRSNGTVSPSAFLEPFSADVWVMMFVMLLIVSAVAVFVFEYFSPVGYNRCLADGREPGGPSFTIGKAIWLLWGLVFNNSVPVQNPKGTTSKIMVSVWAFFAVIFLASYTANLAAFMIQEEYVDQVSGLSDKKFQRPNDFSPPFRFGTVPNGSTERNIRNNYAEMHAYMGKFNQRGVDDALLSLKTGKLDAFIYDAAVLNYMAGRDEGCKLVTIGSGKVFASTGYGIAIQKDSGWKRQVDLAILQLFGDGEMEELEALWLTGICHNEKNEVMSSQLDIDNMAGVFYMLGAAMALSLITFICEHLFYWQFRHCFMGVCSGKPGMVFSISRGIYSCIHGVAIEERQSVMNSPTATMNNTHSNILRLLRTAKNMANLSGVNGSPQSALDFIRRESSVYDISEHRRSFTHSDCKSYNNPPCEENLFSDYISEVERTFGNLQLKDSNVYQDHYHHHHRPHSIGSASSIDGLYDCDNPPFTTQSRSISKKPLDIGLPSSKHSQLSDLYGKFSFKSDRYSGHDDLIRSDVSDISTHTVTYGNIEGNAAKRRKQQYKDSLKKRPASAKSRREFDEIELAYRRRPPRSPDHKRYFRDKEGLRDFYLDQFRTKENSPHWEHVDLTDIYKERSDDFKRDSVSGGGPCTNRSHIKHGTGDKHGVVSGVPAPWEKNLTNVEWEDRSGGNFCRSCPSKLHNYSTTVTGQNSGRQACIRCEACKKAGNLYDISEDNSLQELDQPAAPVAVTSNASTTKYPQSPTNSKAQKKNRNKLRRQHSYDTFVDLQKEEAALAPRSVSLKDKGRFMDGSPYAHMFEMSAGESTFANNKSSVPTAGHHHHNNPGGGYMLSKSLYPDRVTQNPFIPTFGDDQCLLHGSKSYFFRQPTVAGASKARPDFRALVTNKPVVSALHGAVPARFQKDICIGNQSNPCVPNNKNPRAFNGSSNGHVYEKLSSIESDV
Procedure: Two Electrode Voltage-Clamp Recordings from Xenopus laevis Oocytes
Stage V-VI Xenopus laevis unfertilized oocytes were purchased from Ecocyte (Austin, Texas) and injected with 5 ng of GluN1 and 10 ng of GluN2B cRNAs. The cDNAs for human GluN1 and GluN2B, encoding NCBI reference sequences NM_007327.3 and NM_000834.3, respectively, were linearized and cRNAs made as previously described (Traynelis et al., J Neurosci, 1998, 18(16):6163-75). After injection, the oocytes were incubated in Barth's culture solution (88 mM NaCl, 1 mM KCl, 2.4 mM NaHCO3, 10 mM HEPES, 0.82 mM MgSO4, 0.33 mM Ca(NO3)2, 0.41 mM CaCl2), 10 U/mL PenStrep, and 0.1 mg/mL gentamycin, pH 7.4) at 18° C. Two electrode voltage-clamp (TEVC) recordings were made at 22-23° C., 2-7 days after the injection, using Warner OC725C amplifiers (VHOLD=−40 mV). Briefly, the oocytes were perfused in a recording solution (90 mM NaCl, 1 mM KCl, 10 mM HEPES, 0.01 mM EDTA, and 0.5 mM BaCl2) adjusted to either pH 7.6 or 6.9 by addition of NaOH or HCl, respectively (pH 6.9 solutions were prepared by addition of HCl to pH 7.6 solutions to maintain an equal concentration of Na^+ ions in both solutions). Concentration-response curves of the compounds were obtained by application of increasing concentrations of each individual compound until steady state conditions were obtained, in the presence of saturating agonist concentrations (i.e., 100 μM glutamate and 30 μM glycine). In general, oocyte recordings were made from 4-10 oocytes per experiment (i.e., oocyte injection cycle) from ≥two experiments. The concentration-response relationship for each oocyte was fit by equation (1),
Percent Response=(100−minimum)/(1+([concentration]/IC50)^nH)+minimum (1)
where minimum is the residual response in saturating concentration of each individual compound (constrained to be ≥0), and IC50 is the concentration of compound that causes half-maximal inhibition, and nH is the Hill slope.

nonhuman primates = settings: acute administration; cited from earlier work
GluN2B = settings: between pH 6.8 and pH 7.5; cited from earlier work
[2] = test system: motor coordination of mice on rotarod; experiment: Rotarod performance; type: in vivo, mouse; settings: 30 mg/kg IP, all four trials
Procedure: as §1
For rotarod experiments, male C57BL/6 mice (>90 days old) were tested using a Rotamax 4/8 rotarod (Columbus Instruments, Columbus, Ohio). Prior to training and testing, the mice were brought to the testing room and allowed to acclimate for two hours prior to any further handling. Mice were placed on a rotating rod (5 rpm), 3.8 cm in diameter and 8 cm wide, elevated 30 cm from the floor of a chamber. After 10 sec of rotation at a fixed velocity, the rotation was slowly accelerated from 5 to 35 rpm over a 5 min period. The duration of time that the mouse could stay on the rotarod, without hanging on for a full rotation or without falling, was recorded. Mice were trained 4 times at 25 min inter-trial intervals on each day for two days. On day three, mice were randomly assigned to treatment groups and administered test drug or vehicle (via IP administration) 25 min prior to testing (4 trials with inter-trial interval of 25 min). Individuals performing the experiment were blinded to the identity of each treatment group. Results were analyzed by ANOVA and Dunnett's post hoc test to compare duration of time on the rotating rod of drug-treated groups to the vehicle controls.

[3] = pH 6.9, read-out: IC50 (μM) pH 6.9
[4] = pH 7.6, read-out: IC50 (μM) pH 7.6

Compound | IC50 (human GluN1/GluN2B; [3]) [µM] | IC50 (human GluN1/GluN2B; [4]) [µM] | pH Boost (human GluN1/GluN2B) | also measured
C[C@]12N[C@H](Cc3ccccc31)c1ccccc12 [MK-801] | – | – | – | horizontal activity compared to the vehicle control [1]: significant increase
NC(=O)Nc1ccc(OC[C@H](O)CN2CCN(c3ccc(C(F)(F)F)cc3)CC2)cc1 [Compound 10272] | 0.022 | 0.128 | 5.8 | –
Oc1ccc(OC[C@H](O)CN2CCN(c3ccc(F)c(F)c3)CC2)cc1 [Compound 10052] | 0.05 | 0.272 | 5.4 | –
NC(=O)Nc1ccc(OC[C@H](O)CN2CCN(c3ccc(F)cc3)CC2)cc1 [Compound 10225] | 0.097 | 0.527 | 5.4 | –
NC(=O)Nc1ccc(OC[C@@H](O)CN2CCN(c3ccc(Cl)cc3)CC2)cc1 [Compound 10075] | 0.046 | 0.452 | 9.8 | –
CS(=O)(=O)Nc1ccc(OC[C@H](O)CN2CCN(c3ccc(F)c(F)c3)CC2)cc1 [Compound 10233] | 0.047 | 0.294 | 6.3 | potency against GluN2B compared to corresponding S enantiomer (human GluN1/GluN2B): lower potency
O=C1Cc2cc(OC[C@H](O)CN3CCN(c4ccc(Cl)cc4)CC3)ccc2N1 [Compound 10228] | 0.121 | 0.592 | 4.9 | potency against GluN2B compared to corresponding S enantiomer (human GluN1/GluN2B): lower potency
NC(=O)Nc1ccc(OC[C@@H](O)CN2CCN(c3ccc(F)cc3)CC2)cc1 [Compound 10214] | 0.221 | 2.18 | 9.9 | –
Cc1ccc(N2CCN(C[C@H](O)COc3ccc(O)cc3)CC2)cc1 [Compound 10040] | 0.074 | 0.26 | 3.5 | –
O=C1CCc2cc(OC[C@@H](O)CN3CCN(c4ccc(C(F)(F)F)cc4)CC3)ccc2N1 [NP10309] | 0.111 | 0.717 | 6.5 | IC50 (human GluN1/GluN2B; pH 6.9, read-out: IC50 value at pH 6.9): 0.111 µM; IC50 (human GluN1/GluN2B; pH 7.6, read-out: IC50 value at pH 7.6): 0.717 µM
NC(=O)Nc1ccc(OC[C@H](O)CN2CCN(c3ccc(Cl)c(Cl)c3)CC2)cc1 [Compound 10166] | 0.03 | 0.132 | 4.4 | –
Oc1ccc(OC[C@H](O)CN2CCN(c3ccccc3)CC2)cc1 [Compound 10243] | 0.071 | 0.574 | 8.1 | –
CCCCc1ccc(N2CCN(C[C@H](O)COc3ccc(O)cc3)CC2)cc1 [Compound 10235] | 0.398 | 4.38 | 11.0 | –
CC(C)c1ccc(N2CCN(C[C@H](O)COc3ccc(O)cc3)CC2)cc1 [Compound 10082] | 0.356 | 1.37 | 3.8 | –
Oc1ccc(OC[C@@H](O)CN2CCN(c3ccc(F)c(F)c3)CC2)cc1 [Compound 10030] | 0.087 | 0.978 | 11.2 | –
C[C@@H]([C@@H](O)c1ccc(O)cc1)N1CCC(O)(c2ccccc2)CC1 [traxoprodil] | – | – | – | cognitive effects in nonhuman primates (nonhuman primates): produced cognitive impairments in a dose-dependent manner; pH sensitivity for inhibition of receptors (GluN2B): does not possess a significant pH sensitivity

Compound | IC50 (human GluN1/GluN2B; [3]) [µM] | IC50 (human GluN1/GluN2B; [4]) [µM] | pH Boost (human GluN1/GluN2B) | also measured
CCCCc1ccc(N2CCN(C[C@@H](O)COc3ccc(O)cc3)CC2)cc1 [Compound 10249] | 0.549 | 3.42 | 6.2 | potency against GluN2B compared to corresponding S enantiomer (human GluN1/GluN2B): lower potency
CS(=O)(=O)Nc1ccc(OC[C@@H](O)CN2CCN(c3ccc(F)c(F)c3)CC2)cc1 [Compound 93-108] | 0.031 | 0.558 | 18.0 | –
CCCc1ccc(N2CCN(C[C@H](O)COc3ccc(NC(N)=O)cc3)CC2)cc1 [Compound 10215] | 0.13 | 1.3 | 10.0 | –
CCc1ccc(N2CCN(C[C@H](O)COc3ccc(NC(N)=O)cc3)CC2)cc1 [Compound 10189] | 0.094 | 1 | 10.6 | –
CC(C(O)c1ccc(O)cc1)N1CCC(Cc2ccccc2)CC1 (stereo not drawn) [ifenprodil, reference compound] | – | – | – | latency-to-fall score [2]: significant reduction
CCc1ccc(N2CCN(C[C@@H](O)COc3ccc(O)cc3)CC2)cc1 [Compound 10245] | 0.025 | 0.385 | 15.4 | –
CCc1ccc(N2CCN(C[C@@H](O)COc3ccc(NC(N)=O)cc3)CC2)cc1 [Compound 10222] | 0.052 | 0.183 | 3.5 | –
Oc1ccc(OC[C@@H](O)CN2CCN(c3ccccc3)CC2)cc1 [Compound 10039] | 0.217 | 0.476 | 2.2 | –
CCc1ccc(N2CCN(C[C@H](O)COc3ccc(O)cc3)CC2)cc1 [Compound 10171] | 0.046 | 0.316 | 6.9 | –
NC(=O)Nc1ccc(OC[C@H](O)CN2CCN(c3ccc(Cl)cc3)CC2)cc1 [Compound 10165] | 0.019 | 0.06 | 3.2 | –
Cc1ccc(N2CCN(C[C@@H](O)COc3ccc(O)cc3)CC2)cc1 [Compound 10244] | 0.047 | 0.305 | 6.5 | –
NC(=O)Nc1ccc(OC[C@@H](O)CN2CCN(c3ccc(Cl)c(Cl)c3)CC2)cc1 [Compound 10131] | 0.103 | 0.947 | 9.2 | –
CC(C)c1ccc(N2CCN(C[C@@H](O)COc3ccc(O)cc3)CC2)cc1 [Compound 10247] | 0.144 | 0.675 | 4.7 | –
CCCc1ccc(N2CCN(C[C@@H](O)COc3ccc(NC(N)=O)cc3)CC2)cc1 [Compound 10224] | 0.034 | 0.171 | 5.0 | –
NC(=O)Nc1ccc(OC[C@@H](O)CN2CCN(c3ccc(C(F)(F)F)cc3)CC2)cc1 [Compound 10294] | 0.03 | 0.209 | 7.0 | –
O=C1Cc2cc(OC[C@@H](O)CN3CCN(c4ccc(Cl)cc4)CC3)ccc2N1 [Compound 10146] | 0.029 | 0.37 | 12.8 | –
